Here are results for 26 compounds from patent publication US20030225152A1, “3-(Arylamino)methylene-1, 3-dihydro-2h-indol-2-ones as kinase inhibitors” (priority 2001, published 2003).

The subject of test [1] is VEGF induced increases in intracellular calcium levels in HUVEC (human umbilical vein endothelial cells). Put plainly: VEGF Stimulated Ca++ Signal in vitro (FLIPR). The format is cell-based. The conditions noted are these: VEGF 5 ng/mL; for IC50: 0.01 to 10.0 μM. The method in brief:
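HUVEC loaded with Fluo-4 (45 min, 37° C.), washed, then pre-incubated 30 min with compound (10 μM single dose or 0.01–10.0 μM; 0.1% DMSO) before 5 ng/mL VEGF. Fluorescence at 516 nm read by FLIPR; IC50 from % inhibition of max-min VEGF response.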

In test [2] the target is T1, cytoplasmic domain of the human VEGF receptor (VEGFR-2) (Homo sapiens, UniProt P35968).
T1 construct: The cytoplasmic domain of the human VEGF receptor (VEGFR-2) was expressed as a Histidine-tagged fusion protein; Histidine tag
Put plainly: KDR Assay. The format is biochemical. Conditions: His-VEGFR-2; 3.6 μM ATP. On the procedure:
The cytoplasmic domain of the human VEGF receptor (VEGFR-2) was expressed as a Histidine-tagged fusion protein following infection of insect cells using an engineered baculovirus. His-VEGFR-2 was purified to homogeneity, as determined by SDS-PAGE, using nickel resin chromatography. Kinase assays were performed in 96 well microtiter plates that were coated overnight with 30 μg of poly-Glu-Tyr (4:1) in 10 mM Phosphate Buffered Saline (PBS), pH 7.2-7.4. The plates were incubated with 1% BSA and then washed four times with PBS prior to starting the reaction. Reactions were carried out in 120 μL reaction volumes containing 3.6 μM ATP in kinase buffer (50 mM Hepes buffer pH 7.4, 20 mM MgCl2, 0.1 mM MnCl2 and 0.2 mM Na3VO4). Test compounds were reconstituted in 100% DMSO and added to the reaction to give a final DMSO concentration of 5%. Reactions were initiated by the addition 0.5 ng of purified protein. Following a ten minute incubation at 25° C., the reactions were washed four times with PBS containing 0.05% Tween-20. 100 μl of a monoclonal anti-phosphotyrosine antibody-peroxidase conjugate was diluted 1:10000 in PBS-Tween-20 and added to the wells for 30 minutes. Following four washes with PBS-Tween-20, 100 μl of O-phenylenediamine Dihydrochloride in Phosphate-citrate buffer, containing urea hydrogen peroxide, was added to the wells for 7 minutes as a colorimetric substrate for the peroxidase. The reaction was terminated by the addition of 100 μl of 2.5N H2SO4 to each well and read using a microplate ELISA reader set at 492 nm. IC50 values for compound inhibition were calculated directly from graphs of optical density (arbitrary units) versus compound concentration following subtraction of blank values.

T1 sequence (P35968 786-1356): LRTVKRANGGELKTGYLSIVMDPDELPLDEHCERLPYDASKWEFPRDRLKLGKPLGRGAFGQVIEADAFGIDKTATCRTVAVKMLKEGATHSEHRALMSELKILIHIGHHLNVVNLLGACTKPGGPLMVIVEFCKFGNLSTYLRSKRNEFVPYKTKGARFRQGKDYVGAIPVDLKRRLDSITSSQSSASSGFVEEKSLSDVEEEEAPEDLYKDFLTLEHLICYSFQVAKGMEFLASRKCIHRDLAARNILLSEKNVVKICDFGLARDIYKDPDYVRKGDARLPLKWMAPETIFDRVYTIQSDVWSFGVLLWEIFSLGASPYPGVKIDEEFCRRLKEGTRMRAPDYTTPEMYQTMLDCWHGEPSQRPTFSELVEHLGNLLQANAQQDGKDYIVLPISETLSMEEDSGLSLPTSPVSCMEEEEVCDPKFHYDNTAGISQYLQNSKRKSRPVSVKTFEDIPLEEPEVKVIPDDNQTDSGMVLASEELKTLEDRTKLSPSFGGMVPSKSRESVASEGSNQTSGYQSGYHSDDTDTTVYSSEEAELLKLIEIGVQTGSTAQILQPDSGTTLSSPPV

`NS(=O)(=O)c1ccc(NC=C2C(=O)Nc3ccccc32)cc1` [Example 38, 2-Oxo-1,2-dihydro-indol-3-ylidenemethyl-sulfanilamide]: in test [1] (10 μM), the “VEGF Stimulated Ca^++ signal assay % inhibition @ 10 μM” value came out at 92.08%. Besides, the IC50 (as a rule, the concentration that gives 50% inhibition) in test [1] was found to be 1450 nM; in test [2], 500 nM.

`O=C(O)CCc1cccc(NC=C2C(=O)Nc3ccc(F)cc32)c1` [Example 175, 3-{3-[(5-Fluoro-2-oxo-1,2-dihydro-indol-3-ylidenemethyl)-amino]-phenyl}-propionic acid]: the inhibition (in general, the share of the control response that was lost under treatment) at 10 µM in test [1] (Homo sapiens, 10 μM) stood at 38%. The compound further gave an IC50 in test [2] of 710 nM.

As to `Cc1cccc2c1C(=CNc1ccccc1)C(=O)N2` [Example 58, 4-Methyl-3-phenylaminomethylene-1,3-dihydro-indol-2-one], the IC50 in test [1] is 810 nM; in test [1] (Homo sapiens), at most 1000 nM; in test [2], 360 nM. In addition, the inhibition at 10 µM in test [1] (Homo sapiens, 10 μM) worked out at 86.6%.

Consider `Cc1cccc2c1C(=CNc1cccc(C(C)O)c1)C(=O)N2` (stereo not drawn) [Example 183, 3-{[3-(1-Hydroxy-ethyl)-phenylamino]-methylene}-4-methyl-1,3-dihydro-indol-2-one], for which the IC50 was 750 nM in test [1], at most 1000 nM in test [1] (Homo sapiens) and 520 nM in test [2]. The inhibition at 10 µM in test [1] (Homo sapiens, 10 μM) was 98.9%.

Take `NS(=O)(=O)c1ccc(NC=C2C(=O)Nc3ccc(F)cc32)cc1` [Example 166, 4-[(5-Fluoro-2-oxo-1,2-dihydro-indol-3-ylidenemethyl)-amino]-benzenesulfonamide]: in test [1] (Homo sapiens, 10 μM), the inhibition at 10 µM came to 49.2%. In test [2], this compound showed an IC50 of 660 nM.

For the compound `Cc1cccc2c1C(=CNc1ccc(CCCC(=O)O)cc1)C(=O)N2` [Example 140, 4-{4-[(4-Methyl-2-oxo-1,2-dihydro-indol-3-ylidenemethyl)-amino]-phenyl}-butyric acid], the inhibition at 10 µM in test [1] (Homo sapiens, 10 μM) amounted to 96.9%. The compound also showed an IC50 in test [2] of 400 nM.

Take `O=C(O)CCc1ccc(NC=C2C(=O)Nc3ccccc32)cc1` [Example 144, 3-{4-[(2-Oxo-1,2-dihydro-indol-3-ylidenemethyl)-amino]-phenyl}-propionic acid]: in test [1] (Homo sapiens, 10 μM), the inhibition at 10 µM came to 96.5%. For the same compound, the half-maximal inhibitory concentration (IC50) in test [1] (Homo sapiens) was 2700 nM; in test [2] it was 460 nM.

On to `NS(=O)(=O)c1ccc(NC=C2C(=O)Nc3ccc(Cl)cc32)cc1` [Example 116, 4-[(5-Chloro-2-oxo-1,2-dihydro-indol-3-ylidenemethyl)-amino]-benzenesulfonamide], for which the inhibition at 10 µM in test [1] (Homo sapiens, 10 μM) came out at 99.4%. The figures for the concentration for half-maximal inhibition (IC50) in test [1] (Homo sapiens) and in test [2] were 1640 nM and 980 nM, respectively.

In the case of `Cc1cccc2c1C(=CNc1ccc(S(=O)(=O)NCCO)cc1)C(=O)N2` [Example 197, N-(2-Hydroxy-ethyl)-4-[(4-methyl-2-oxo-1,2-dihydro-indol-3-ylidenemethyl)-amino]-benzenesulfonamide], the inhibition at 10 µM in test [1] (Homo sapiens, 10 μM) was determined as 98.1%. Further, half-maximal inhibition in test [2] (IC50) required 90 nM.

With `CCN(CC)CCCOc1ccc(NC=C2C(=O)Nc3cccc(F)c32)cc1F` [Example 267, 3-{[4-(3-Diethylamino-propoxy)-3-fluoro-phenylamino]-methylene}-4-fluoro-1,3-dihydro-indol-2-one], the results for the IC50 in test [1] (Homo sapiens) and in test [2] were 1420 nM and 230 nM, respectively.

`O=C1Nc2ccccc2C1=CNc1ccc(N2CCCCC2)cc1` [Example 158, 3-[(4-Piperidin-1-yl-phenylamino)-methylene]-1,3-dihydro-indol-2-one]: in test [1] (Homo sapiens, 10 μM), the inhibition at 10 µM came out at 97.5%. Besides, the IC50 in test [1] (Homo sapiens) came out at 1140 nM; in test [2] it was 390 nM.

For the compound `NC(=O)c1ccc(NC=C2C(=O)Nc3ccccc32)cc1` [Example 33, 3-[(4-Benzamidylamino)-methylene]-1,3-dihydro-indol-2-one], the inhibition at 10 µM in test [1] (Homo sapiens, 10 μM) worked out at 95.9%. The IC50 in test [1] (Homo sapiens) was 1350 nM; in test [2] it was 880 nM.

As to `Cc1cccc2c1C(=CNc1cccc(CCC(=O)O)c1)C(=O)N2` [Example 142, 3-{3-[(4-Methyl-2-oxo-1,2-dihydro-indol-3-ylidenemethyl)-amino]-phenyl}-propionic acid], in test [1] (Homo sapiens, 10 μM), the inhibition at 10 µM turned out to be 99.3%. In addition, the half-maximal inhibitory concentration (IC50) was 4160 nM in test [1] (Homo sapiens) and 210 nM in test [2].

`Cc1cccc2c1C(=CNc1ccc(CN3CCCCC3)cc1)C(=O)N2` [Example 256, 4-Methyl-3-[(4-piperidin-1-ylmethyl-phenylamino)-methylene]-1,3-dihydro-indol-2-one]: the IC50 in test [1] is 670 nM; in test [1] (Homo sapiens), at most 1000 nM; in test [2] it was 190 nM.

As to `O=C1Nc2ccccc2C1=CNc1ccc(OCCCCCl)cc1` [Example 199, 3-{[4-(4-Chloro-butoxy)-phenylamino]-methylene}-1,3-dihydro-indol-2-one], the inhibition at 10 µM in test [1] (Homo sapiens, 10 μM) is 32.4%. Moreover, the midpoint of inhibition in test [2], the IC50, lay at 290 nM.

Take `COc1cccc(-c2ccc3c(c2)NC(=O)C3=CNc2ccc(OCCCN3CCCCC3)cc2)c1` [Example 276, 6-(3-Methoxy-phenyl)-3-{[4-(3-piperidin-1-yl-propoxy)-phenylamino]-methylene}-1,3-dihydro-indol-2-one]: the figures for the IC50 in test [1] (Homo sapiens) and in test [2] were 8810 nM and 220 nM, respectively.

`O=C1Nc2ccc(F)cc2C1=CNc1ccc(OCCCN2CCCCC2)cc1` [Example 240, 5-Fluoro-3-{[4-(3-piperidin-1-yl-propoxy)-phenylamino]-methylene}-1,3-dihydro-indol-2-one]: the inhibition at 10 µM in test [1] (Homo sapiens, 10 μM) is 98.3%. The compound further gave an IC50 in test [2] of 230 nM.

As to `COc1cccc(-c2ccc3c(c2)NC(=O)C3=CNc2ccc(N3CCOCC3)cc2)c1` [Example 269, 6-(3-Methoxy-phenyl)-3-{[4-morpholin-4-yl-phenylamino)-methylene]-1,3-dihydro-indol-2-one], the IC50 is at least 10000 nM in test [1] (Homo sapiens) and 1680 nM in test [2].

On to `Cc1cccc2c1C(=CNc1ccc(NCCN3CCOCC3)cc1)C(=O)N2` [Example 242, 4-Methyl-3-{[4-(2-morpholin-4-yl-ethylamino)-phenylamino]-methylene}-1,3-dihydro-indol-2-one], for which the inhibition at 10 µM in test [1] (Homo sapiens, 10 μM) was 95.8%. This compound also yielded an IC50 in test [2] of 70 nM.

On to `Cc1cccc2c1C(=CNc1cccc(S(=O)(=O)NCCCO)c1)C(=O)N2` [Example 194, N-(3-Hydroxy-propyl)-3-[(4-methyl-2-oxo-1,2-dihydro-indol-3-ylidenemethyl)-amino]-benzenesulfonamide], for which the inhibition at 10 µM in test [1] (Homo sapiens, 10 μM) was 96.9%. The IC50 in test [1] (Homo sapiens) was determined as 2670 nM; in test [2] it was 660 nM.

For `O=C1Nc2ccccc2C1=CNc1cccc(O)c1` [Example 15, 3-[(3-Hydroxy-phenylamino)-methylene]-1,3-dihydro-indol-2-one], in test [1] (Homo sapiens, 10 μM), the inhibition at 10 µM was determined as 93.7%. In test [2], the IC50 was 910 nM.

Take `O=C(O)CCc1ccc(NC=C2C(=O)Nc3ccc(F)cc32)cc1` [Example 165, 3-{4-[(5-Fluoro-2-oxo-1,2-dihydro-indol-3-ylidenemethyl)-amino]-phenyl}-propionic acid]: the inhibition at 10 µM in test [1] (Homo sapiens, 10 μM) came out at 99.3%. For the same compound, the figures for the IC50 in test [1] (Homo sapiens) and in test [2] were 1340 nM and 360 nM, respectively.

In the case of `Cc1cccc2c1C(=CNc1ccc(C(=S)N3CCOCC3)cc1)C(=O)N2` [Example 196, 4-Methyl-3-{[4-(1-morpholin-4-yl-methanethiol)-phenylamino]-methylene}-1,3-dihydro-indol-2-one], the IC50 in test [1] is 770 nM; in test [1] (Homo sapiens), at most 1000 nM; in test [2], 50 nM. In addition, the inhibition at 10 µM in test [1] (Homo sapiens, 10 μM) is 73.1%.

In the case of `O=C(O)Cc1ccc(NC=C2C(=O)Nc3ccc(Cl)cc32)cc1` [Example 115, {4-[(5-Chloro-2-oxo-1,2-dihydro-indol-3-ylidenemethyl)-amino]-phenyl}-acetic acid], the inhibition at 10 µM in test [1] (Homo sapiens, 10 μM) came to 98.2%. In addition, the IC50 in test [1] (Homo sapiens) came to 3080 nM; in test [2], 470 nM.

With `COc1ccc(NC=C2C(=O)Nc3ccc(Cl)cc32)cc1O` [Example 65, 3-[(3-Hydroxy-4-methoxyphenylamino)-methylene]-5-chloro-1,3-dihydro-indol-2-one], the inhibition at 10 µM in test [1] (Homo sapiens, 10 μM) was determined as 95.5%. Besides, the IC50 is 1100 nM in test [1] (Homo sapiens) and 530 nM in test [2].

For `O=C1Nc2cccc(F)c2C1=CNc1ccc(OCCN2CCCCC2)cc1` [Example 261, 4-Fluoro-3-{[4-(2-piperidin-1-yl-ethoxy)-phenylamino]-methylene}-1,3-dihydro-indol-2-one], the IC50 was 1060 nM in test [1] (Homo sapiens) and 390 nM in test [2].
